This is an account of results in patent publication US11111240B2, “Sultam compound and application method thereof” (Chia Tai Tianqing Pharmaceutical Group Co., Ltd., priority 2016, dated 2021).

pIC50: −log10 of the molar value. Where two headings read alike, the source gives them in different places. Some results are limits rather than exact numbers.

The subject of one data set is U87/IDH1 (R132H) cells. Nature of the data set: Inhibitory activity on IDH1-mutated U87 cells (2-HG determination). Type of data set: cell-based. Conditions: Homo sapiens, U-87 MG.
Data set [1] in a line: Pharmacokinetic experiments in male SD rats, single peroral administration. Type of data set: in vivo, rat. The settings on record: for Cmax / Tmax / AUC(0-inf) / half-life: plasma; for AUC(0-inf): read-out: AUCINF—obs. Here is the method: Male SD rats were from Beijing Vital River Laboratory Animal Technology Co., Ltd., and divided into groups (3 rats per group). The rats were intragastrically administered with the test sample suspension (5 mg/kg) via a single peroral administration, respectively. The animals were fasted overnight before this study. The fasting time period was from 10 hours before administration to 4 hours after administration. Blood samples were taken at 0.25, 0.5, 1, 2, 4, 6, 8 and 24 hours after administration. After the rats were anesthetized with isoflurane using an anesthesia machine for small animal, and then 0.3 mL whole blood samples were taken from the fundus venous plexus. The blood samples were placed in heparin anticoagulant tubes, and centrifuged for 5 min at 4° C. and 4000 rpm. The plasma was transferred to centrifuge tubes, and stored at −80° C. until analysis. The samples in plasma were extracted through protein precipitation. The liquid extract was analyzed by LC-MS/MS, wherein HPLC conditions were as follows: flow rate 0.4 mL/min; mobile phase A: water/formic acid (99.9/0.1, v/v); mobile phase B: acetonitrile/formic acid (99.9/0.1, v/v); injection volume: 5 μL; column temperature: RT; autosampler temperature: RT; run time: 2.5 min.

In a further data set the target is IDH1 (R132C) (Homo sapiens (Human), UniProt O75874, R132C). As to the kind of experiment: Enzyme assay, IDH1m inhibition (NADPH decrease, diaphorase/resazurin). Type of data set: biochemical. Conditions: 40 nM enzyme, 16 h pre-incubation at 23° C. The text has this: (§1) Resazurin is a traditional redox dye, and after a redox reaction, it can be reduced from a blue resazurin without fluorescence to a pink fluorescent substance, resorufin, which can be measured and quantified with relative fluorescence unit (RFU) of fluorophotometer (Ex=530-570 nm, Em=590-620 nm). At present, resazurin is widely used for determining the viability of bacteria, cells, etc. and the enzyme activity detection of oxidoreductase. We detected the decrease of cofactor NADPH to determine the inhibitory activity of a compound against IDH1m and detected the generation of cofactor NADPH to determine the inhibitory activity of a compound against IDH WT. The compound was pre-incubated with IDH1m and NADPH, and then the reaction was initiated by adding α-KG and performed for certain time under a linear condition. Then, diaphorase (lipoamide dehydrogenase) and the corresponding substrate resazurin were added thereto for detection. Lipoamide dehydrogenase terminated the IDH1m reaction by decreasing the available cofactor NADPH, which oxidized NADPH to NADP, and reduced resazurin to high fluorescent resorufin. The amount of the remaining cofactor NADPH after a specific reaction time was quantified via an easily detectable fluorophore.
(§2) The specific operation was as follows: 2.5 μl of the compound diluted in a 3-fold gradient was added to a 384-well plate, followed by adding 5 μl of the reaction buffer (20 mM Tris-HCl, pH 7.5; 150 mM NaCl; 10 mM MgCl2; 0.4 mg/mL BSA (Bovine Serum Albumin) and 2 mM DTT (dithiothreitol)) containing 40 nM IDH1 (R132H/R132C) and 20 μM NADPH. Then, the above test mixture was incubated at 23° C. for 16 hours, and then 2.5 μl of the reaction buffer containing 4 mM α-KG was added to initiate the reaction. After they were incubated for 60 minutes at room temperature, 5 μl of the termination mixture (0.4 U/ml diaphorase and 20 μM resazurin) formulated with the reaction buffer was added to convert resazurin to resorufin, so as to measure the amount of the remaining NADPH. After incubating at 23° C. for 10 minutes, fluorescence values were determined through Flexstation 3 at Ex535/Em595. The enzyme activity of each compound was respectively determined at 12 concentrations, and the data were calculated using the software GraFit6.0 (Erithacus Software) to obtain the IC50 value of each compound.
(In general: Alamar Blue is a resazurin reagent that responds to reducing activity.)

The next data set has as its target IDH1 (R132H) (Homo sapiens (Human), UniProt O75874, R132H). Described as above. Type of data set: biochemical. Conditions: 40 nM enzyme, 16 h pre-incubation at 23° C.
Excerpt: as §1, §2

Where [2] appears, read: rat, male SD rats, oral 5 mg/kg, 0.5% MC, 0.2% Tween80.

Sequence of IDH1 (R132H) (O75874 whole entry R132H): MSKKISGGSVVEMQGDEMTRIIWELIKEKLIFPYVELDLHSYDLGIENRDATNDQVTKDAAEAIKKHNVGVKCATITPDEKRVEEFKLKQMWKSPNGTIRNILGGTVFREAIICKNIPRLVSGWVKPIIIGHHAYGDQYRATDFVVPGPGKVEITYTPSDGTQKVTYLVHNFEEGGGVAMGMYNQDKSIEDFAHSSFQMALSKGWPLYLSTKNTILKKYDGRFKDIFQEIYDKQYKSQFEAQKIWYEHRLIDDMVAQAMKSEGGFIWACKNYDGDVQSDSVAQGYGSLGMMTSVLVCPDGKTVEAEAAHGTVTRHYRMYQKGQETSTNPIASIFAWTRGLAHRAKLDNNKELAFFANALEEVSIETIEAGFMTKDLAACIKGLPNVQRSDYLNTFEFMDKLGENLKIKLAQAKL
Sequence of IDH1 (R132C) (O75874 whole entry R132C): as the sequence (O75874 whole entry R132H) above, with H132C counted along it
Protocol for U87/IDH1 (R132H) cells: In the presence of 2-HG, phosphoglycerate dehydrogenase PHGDH can reduce NAD to NADPH, and the latter may be quantitatively determined by lipoamide dehydrogenase and the substrate thereof, resazurin.
U87 cell is a human glioblastoma cell line with an IDH1 mutation (R132H).
Cells was digested with trypsin, and inoculated into a 6-well plate at a density of 5×10^5, and cultured overnight in an incubator at 37° C. […] Culture medium of each sample was sucked out and centrifuged at 1000 rpm for 10 min. The supernatant was sucked out to detect the content of 2-HG therein. Additionally, cells were washed with PBS (phosphate buffered saline), digested with trypsin and collected. After the collected cells were washed with PBS for one time, the determination of intracellular 2-HG content was performed.
The method for determining the intracellular 2-HG was as follows: cells were re-suspended with 300 μL reaction buffer (40 mM Tris-HCl, pH 8.5; 150 mM NaCl) and disrupted by ultrasonication. They were centrifuged for 10 min at 12,000 rpm and 4° C. to remove insoluble substances. 25 μL supernatant was sucked out to determine the protein concentration by a BCA kit. […]
The measured fluorescence values were compared after being corrected with the protein concentrations of the corresponding samples.

A word on the pIC50: it is the negative decadic logarithm of the IC50, by convention in mol/L. One may read the Cmax as the highest concentration seen after dosing. As usually defined, the Tmax is the time from dosing to the highest level. Consider `N#Cc1ccnc(N2C(=O)CC[C@H]2C(=O)N(c2cncc(F)c2)[C@H](C(=O)NC2CC(F)(F)C2)c2ccccc2Cl)c1` [AG-120, ivosidenib, reference compound], for which the pIC50 in the data set on U87/IDH1 (R132H) cells is 7.34. For the same molecule, in data set [1] (setting [2]), the peak level (Cmax) was 719 ng/mL, the Tmax amounted to 0.67 h and the AUC(0-inf) worked out at 6320 ng·h/mL. Further, the half-life in data set [1] (rat, male SD rats, oral 5 mg/kg, 0.5% MC, 0.2% Tween80, read-out: T1/2 (converted)) was 3.28 h.
As for `N#Cc1ccnc(N2[C@H](C(=O)N(c3cncc(F)c3)[C@H](C(=O)NC3CC(F)(F)C3)c3ccccc3Cl)CCS2(=O)=O)c1` [Example 2, (S)—N—((S)-1-(2-chlorophenyl)-2-((3,3-difluorocyclobutyl)amino)-2-oxoethyl)-2-(4-cyanopyridin-2-yl)-N-(5-fluoropyridin-3-yl)-isothiazolidine-3-carboxamide 1,1-dioxide], the negative logarithm of the IC50 (pIC50) was over 7.70 at IDH1 (R132C), over 7.70 on IDH1 (R132H) and 8.17 in the data set with U87/IDH1 (R132H) cells.
On IDH1 (R132C), `N#Cc1ccnc(N2[C@H](C(=O)N(c3cccc(F)c3)[C@H](C(=O)NC3CC(F)(F)C3)c3ccccc3Cl)CCS2(=O)=O)c1` [Example 12, (S)—N—((S)-1-(2-chlorophenyl)-2-((3,3-difluorocyclobutyl)amino)-2-oxoethyl)-2-(4-cyanopyridin-2-yl)-N-(3-fluorophenyl)-isothiazolidine-3-carboxamide 1,1-dioxide] gave a pIC50 of over 7.70. The molecule also showed a negative-log IC50 (pIC50) against IDH1 (R132H) of over 7.70. Further, the T1/2 in data set [1] (male SD rats, oral 5 mg/kg, 0.5% MC, 0.2% Tween80) came out at 10.7 h. In addition, the half-life in data set [1] (male, SD, 5 mg/kg, rat, oral, read-out: half-life (converted)) was 10.7 h. For the same molecule, in data set [1] (setting [2]), the peak level (Cmax) was 556 ng/mL, the time to peak (Tmax) is 4 h and the AUC(0-inf) is 10600 ng·h/mL. In addition, the “drug exposure in plasma compared with AG-120” value in data set [1] (rat, same oral dose) is listed as “far higher than that of AG-120”.
The molecule `N#Cc1ccnc(NS(=O)(=O)c2cccc(N(C(=O)[C@@H]3CCS(=O)(=O)N3c3cc(C#N)ccn3)C(C(=O)NC3CCCCC3)c3ccccc3Cl)c2)c1` (stereo partly drawn) [Example 20, (3S)—N-(1-(2-chlorophenyl)-2-(cyclohexylamino)-2-oxoethyl)-2-(4-cyanopyridin-2-yl)-N-(3-(N-(4-cyanopyridin-2-yl)aminosulfonyl)phenyl)-isothiazolidine-3-carboxamide 1,1-dioxide] showed a negative logarithm of the IC50 (pIC50) on IDH1 (R132H) of over 7.70.
The molecule `N#Cc1cccc(CN2[C@H](C(=O)N(c3cccc(F)c3)C(C(=O)NC3CCCCC3)c3ccccc3Cl)CCS2(=O)=O)c1` (stereo partly drawn) [Example 21] gave a pIC50 against IDH1 (R132H) of over 5.00.
Same read-out and setting: the value for `N#Cc1ccnc(N2[C@H](C(=O)N(c3cccc(F)c3)[C@@H](C(=O)NC3CCC(F)(F)CC3)c3ccccc3Cl)CCS2(=O)=O)c1` [Example 22] was over 6.00.
Still for that read-out and setting: then `N#Cc1ccnc(N2[C@H](C(=O)N(c3cccc(F)c3)[C@H](C(=O)NC3CCC(F)(F)CC3)c3ccccc3Cl)CCS2(=O)=O)c1` [Example 23, (S)—N—((S)-1-(2-chlorophenyl)-2-((4,4-difluorocyclohexyl)amino)-2-oxoethyl)-2-(4-cyanopyridin-2-yl)-N-(3-fluorophenyl)-isothiazolidine-3-carboxamide 1,1-dioxide], with over 7.70; and `N#Cc1ccnc(N2[C@H](C(=O)N(c3cccc(F)c3)[C@H](C(=O)NC3CC(F)(F)C3)c3ccccc3Cl)CNS2(=O)=O)c1` [Example 24, (S)—N—((S)-1-(2-chlorophenyl)-2-((3,3-difluorocyclobutyl)amino)-2-oxoethyl)-2-(4-cyanopyridin-2-yl)-N-(3-fluorophenyl)-1,2,5-thiadiazolidine-3-carboxamide 1,1-dioxide], with over 7.70; and `CN1C[C@@H](C(=O)N(c2cccc(F)c2)C(C(=O)NC2CC(F)(F)C2)c2ccccc2Cl)N(c2cc(C#N)ccn2)S1(=O)=O` (stereo partly drawn) [Example 25, (3S)—N-(1-(2-chlorophenyl)-2-((3,3-difluorocyclobutyl)amino)-2-oxoethyl)-2-(4-cyanopyridin-2-yl)-N-(3-fluorophenyl)-5-methyl-1,2,5-thiadiazolidine-3-carboxamide 1,1-dioxide], with 7.70.
Same read-out and setting: the value for `N#Cc1ccnc(N2[C@H](C(=O)N(c3cccc(S(N)(=O)=O)c3)C(C(=O)NC3CCCCC3)c3ccccc3Cl)CCS2(=O)=O)c1` (stereo partly drawn) [Example 26, (3S)—N-(1-(2-chlorophenyl)-2-(cyclohexylamino)-2-oxoethyl)-2-(4-cyanopyridin-2-yl)-N-(3-aminosulfonylphenyl)-isothiazolidine-3-carboxamide 1,1-dioxide] was over 7.70; that for `N#Cc1ccnc(N2[C@H](C(=O)N(c3cc(F)c[n+]([O-])c3)[C@H](C(=O)NC3CC(F)(F)C3)c3ccccc3Cl)CCS2(=O)=O)c1` [Example 27, 3-((S)—N—((S)-1-(2-chlorophenyl)-2-((3,3-difluorocyclobutyl)amino)-2-oxoethyl)-2-(4-cyanopyridin-2-yl)-1,1-dioxoisothiazolidine-3-carboxamido)-5-fluoropyridine-1-oxide] was 7.70.
